How the values were obtained:
[1] = molecular target: CDK2/Cyclin A2 (Homo sapiens) (UniProt P24941+P20248); conditions: dose 100.0 nM, time 10.0 min
Histone deacetylase 9 = Histone deacetylase 9 (Homo sapiens, UniProt Q9UKV0); test: Inhibition of recombinant human HDAC9 measured after 30 mins by fluorescence microplate reader assay
HepG2 = test: Antiproliferative activity against human HepG2 cells assessed as cell growth inhibition measured after 48 hrs by CCK8 assay; assay type: functional, cell-based; conditions: HepG2, 48 h
A549 = test: Antiproliferative activity against human A549 cells assessed as cell growth inhibition measured after 48 hrs by CCK8 assay; assay type: functional, cell-based; conditions: A549, 48 h
[2] = molecular target: Histone deacetylase (Homo sapiens) (UniProt Q13547+O15379+Q9UBN7+Q92769+Q9UQL6+Q8WUI4+Q9BY41+Q96DB2+P56524+Q9UKV0+Q969S8); conditions: HeLa, Nucleus, dose 1000.0 nM, time 1.0 hrs
Histone deacetylase 2 = Histone deacetylase 2 (Homo sapiens, UniProt Q92769); test: Inhibition of HDAC2 (unknown origin) measured after 30 mins by fluorescence microplate reader assay
Chain of Histone deacetylase 2 (Q92769 whole entry): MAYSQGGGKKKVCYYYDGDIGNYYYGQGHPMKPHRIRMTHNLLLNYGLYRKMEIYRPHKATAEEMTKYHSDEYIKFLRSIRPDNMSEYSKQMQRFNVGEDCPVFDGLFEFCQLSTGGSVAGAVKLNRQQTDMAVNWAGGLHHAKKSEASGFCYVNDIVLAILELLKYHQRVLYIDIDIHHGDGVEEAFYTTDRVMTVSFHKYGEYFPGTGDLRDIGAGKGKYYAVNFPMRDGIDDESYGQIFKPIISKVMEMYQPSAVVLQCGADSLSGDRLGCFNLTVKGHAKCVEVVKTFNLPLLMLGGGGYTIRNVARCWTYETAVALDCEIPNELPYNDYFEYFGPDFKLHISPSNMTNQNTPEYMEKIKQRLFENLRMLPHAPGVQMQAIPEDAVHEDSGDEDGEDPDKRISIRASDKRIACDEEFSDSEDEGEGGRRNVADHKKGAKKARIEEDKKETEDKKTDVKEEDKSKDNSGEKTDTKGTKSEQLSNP

[3] = molecular target: NAD-dependent protein deacylase sirtuin-5, mitochondrial (Homo sapiens, UniProt Q9NXA8); test: Inhibition of recombinant human SIRT5 measured after 30 mins by fluorescence microplate reader assay
Histone deacetylase 7 = molecular target: T1, Histone deacetylase 7 (Homo sapiens, UniProt Q8WUI4); test: Inhibition of HDAC7 (unknown origin) measured after 30 mins by fluorescence microplate reader assay
T1 sequence (Q8WUI4 whole entry): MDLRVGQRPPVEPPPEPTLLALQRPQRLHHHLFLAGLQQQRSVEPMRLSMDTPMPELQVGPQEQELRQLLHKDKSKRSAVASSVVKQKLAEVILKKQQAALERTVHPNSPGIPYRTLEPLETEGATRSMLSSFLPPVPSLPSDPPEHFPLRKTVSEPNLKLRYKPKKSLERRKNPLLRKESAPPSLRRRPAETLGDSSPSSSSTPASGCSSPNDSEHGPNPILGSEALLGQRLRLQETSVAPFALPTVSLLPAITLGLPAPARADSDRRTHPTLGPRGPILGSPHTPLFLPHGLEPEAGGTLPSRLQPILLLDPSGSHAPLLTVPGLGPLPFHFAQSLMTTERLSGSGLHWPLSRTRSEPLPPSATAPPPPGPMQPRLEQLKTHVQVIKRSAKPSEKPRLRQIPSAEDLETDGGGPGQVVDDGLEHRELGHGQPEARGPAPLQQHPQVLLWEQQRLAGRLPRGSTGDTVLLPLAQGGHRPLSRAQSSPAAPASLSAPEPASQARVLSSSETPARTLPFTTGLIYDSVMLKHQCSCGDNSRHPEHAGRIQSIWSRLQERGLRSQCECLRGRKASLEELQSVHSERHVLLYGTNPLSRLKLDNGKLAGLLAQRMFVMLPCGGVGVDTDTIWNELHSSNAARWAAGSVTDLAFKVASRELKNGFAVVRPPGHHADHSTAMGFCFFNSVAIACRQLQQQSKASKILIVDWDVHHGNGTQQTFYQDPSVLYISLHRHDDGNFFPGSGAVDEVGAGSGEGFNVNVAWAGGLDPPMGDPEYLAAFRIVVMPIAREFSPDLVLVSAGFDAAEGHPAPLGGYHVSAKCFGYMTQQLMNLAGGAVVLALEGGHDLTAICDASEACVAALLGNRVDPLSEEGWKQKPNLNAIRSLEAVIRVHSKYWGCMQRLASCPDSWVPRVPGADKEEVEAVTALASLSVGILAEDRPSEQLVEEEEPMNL

Histone deacetylase 1 = Histone deacetylase 1 (Homo sapiens, UniProt Q13547); test: Inhibition of HDAC1 (unknown origin) measured after 30 mins by fluorescence microplate reader assay
Chain of Histone deacetylase 1 (Q13547 whole entry, the tested form may be a part): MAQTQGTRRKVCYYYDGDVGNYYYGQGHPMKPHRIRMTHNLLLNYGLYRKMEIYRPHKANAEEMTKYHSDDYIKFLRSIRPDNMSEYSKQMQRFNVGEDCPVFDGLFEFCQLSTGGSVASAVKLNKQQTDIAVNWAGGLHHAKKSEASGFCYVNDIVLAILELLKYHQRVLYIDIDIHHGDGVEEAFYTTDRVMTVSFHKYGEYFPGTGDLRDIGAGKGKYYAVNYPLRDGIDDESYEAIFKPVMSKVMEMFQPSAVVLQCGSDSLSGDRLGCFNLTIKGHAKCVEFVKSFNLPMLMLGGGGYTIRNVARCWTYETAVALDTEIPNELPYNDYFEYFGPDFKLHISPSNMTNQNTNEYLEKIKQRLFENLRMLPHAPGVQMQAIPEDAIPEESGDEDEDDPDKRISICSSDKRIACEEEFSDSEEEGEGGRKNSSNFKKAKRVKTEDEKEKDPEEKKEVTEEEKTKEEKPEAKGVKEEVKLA

[4] = molecular target: Histone deacetylase 3/Nuclear receptor corepressor 2 (HDAC3/NCoR2) (Homo sapiens, UniProt O15379); test: Inhibition of C-terminal His-tagged recombinant human HDAC3 (1 to 428 residues)/N-terminal GST-tagged recombinant human NCoR2 (395 to 489 residues) co-expressed in baculovirus infected Sf9 cells measured after 30 mins by fluorescence microplate reader assay
Chain of Histone deacetylase 3/Nuclear receptor corepressor 2 (HDAC3/NCoR2) (O15379 whole entry, the tested form may be a part): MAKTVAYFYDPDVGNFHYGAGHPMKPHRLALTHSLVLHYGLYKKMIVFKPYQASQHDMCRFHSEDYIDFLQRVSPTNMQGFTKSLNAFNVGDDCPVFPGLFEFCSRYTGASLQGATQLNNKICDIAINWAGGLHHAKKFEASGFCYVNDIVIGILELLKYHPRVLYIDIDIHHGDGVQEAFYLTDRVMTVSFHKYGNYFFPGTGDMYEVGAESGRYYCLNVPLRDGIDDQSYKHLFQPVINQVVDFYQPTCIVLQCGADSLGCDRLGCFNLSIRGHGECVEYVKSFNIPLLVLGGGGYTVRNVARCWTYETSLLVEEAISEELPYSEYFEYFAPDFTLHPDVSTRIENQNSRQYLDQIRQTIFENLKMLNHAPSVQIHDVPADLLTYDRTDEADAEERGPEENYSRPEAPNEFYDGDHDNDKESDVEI
Chain of Histone deacetylase 3/Nuclear receptor corepressor 2 (HDAC3/NCoR2) (Q9Y618 whole entry, further chain, the tested form may be a part): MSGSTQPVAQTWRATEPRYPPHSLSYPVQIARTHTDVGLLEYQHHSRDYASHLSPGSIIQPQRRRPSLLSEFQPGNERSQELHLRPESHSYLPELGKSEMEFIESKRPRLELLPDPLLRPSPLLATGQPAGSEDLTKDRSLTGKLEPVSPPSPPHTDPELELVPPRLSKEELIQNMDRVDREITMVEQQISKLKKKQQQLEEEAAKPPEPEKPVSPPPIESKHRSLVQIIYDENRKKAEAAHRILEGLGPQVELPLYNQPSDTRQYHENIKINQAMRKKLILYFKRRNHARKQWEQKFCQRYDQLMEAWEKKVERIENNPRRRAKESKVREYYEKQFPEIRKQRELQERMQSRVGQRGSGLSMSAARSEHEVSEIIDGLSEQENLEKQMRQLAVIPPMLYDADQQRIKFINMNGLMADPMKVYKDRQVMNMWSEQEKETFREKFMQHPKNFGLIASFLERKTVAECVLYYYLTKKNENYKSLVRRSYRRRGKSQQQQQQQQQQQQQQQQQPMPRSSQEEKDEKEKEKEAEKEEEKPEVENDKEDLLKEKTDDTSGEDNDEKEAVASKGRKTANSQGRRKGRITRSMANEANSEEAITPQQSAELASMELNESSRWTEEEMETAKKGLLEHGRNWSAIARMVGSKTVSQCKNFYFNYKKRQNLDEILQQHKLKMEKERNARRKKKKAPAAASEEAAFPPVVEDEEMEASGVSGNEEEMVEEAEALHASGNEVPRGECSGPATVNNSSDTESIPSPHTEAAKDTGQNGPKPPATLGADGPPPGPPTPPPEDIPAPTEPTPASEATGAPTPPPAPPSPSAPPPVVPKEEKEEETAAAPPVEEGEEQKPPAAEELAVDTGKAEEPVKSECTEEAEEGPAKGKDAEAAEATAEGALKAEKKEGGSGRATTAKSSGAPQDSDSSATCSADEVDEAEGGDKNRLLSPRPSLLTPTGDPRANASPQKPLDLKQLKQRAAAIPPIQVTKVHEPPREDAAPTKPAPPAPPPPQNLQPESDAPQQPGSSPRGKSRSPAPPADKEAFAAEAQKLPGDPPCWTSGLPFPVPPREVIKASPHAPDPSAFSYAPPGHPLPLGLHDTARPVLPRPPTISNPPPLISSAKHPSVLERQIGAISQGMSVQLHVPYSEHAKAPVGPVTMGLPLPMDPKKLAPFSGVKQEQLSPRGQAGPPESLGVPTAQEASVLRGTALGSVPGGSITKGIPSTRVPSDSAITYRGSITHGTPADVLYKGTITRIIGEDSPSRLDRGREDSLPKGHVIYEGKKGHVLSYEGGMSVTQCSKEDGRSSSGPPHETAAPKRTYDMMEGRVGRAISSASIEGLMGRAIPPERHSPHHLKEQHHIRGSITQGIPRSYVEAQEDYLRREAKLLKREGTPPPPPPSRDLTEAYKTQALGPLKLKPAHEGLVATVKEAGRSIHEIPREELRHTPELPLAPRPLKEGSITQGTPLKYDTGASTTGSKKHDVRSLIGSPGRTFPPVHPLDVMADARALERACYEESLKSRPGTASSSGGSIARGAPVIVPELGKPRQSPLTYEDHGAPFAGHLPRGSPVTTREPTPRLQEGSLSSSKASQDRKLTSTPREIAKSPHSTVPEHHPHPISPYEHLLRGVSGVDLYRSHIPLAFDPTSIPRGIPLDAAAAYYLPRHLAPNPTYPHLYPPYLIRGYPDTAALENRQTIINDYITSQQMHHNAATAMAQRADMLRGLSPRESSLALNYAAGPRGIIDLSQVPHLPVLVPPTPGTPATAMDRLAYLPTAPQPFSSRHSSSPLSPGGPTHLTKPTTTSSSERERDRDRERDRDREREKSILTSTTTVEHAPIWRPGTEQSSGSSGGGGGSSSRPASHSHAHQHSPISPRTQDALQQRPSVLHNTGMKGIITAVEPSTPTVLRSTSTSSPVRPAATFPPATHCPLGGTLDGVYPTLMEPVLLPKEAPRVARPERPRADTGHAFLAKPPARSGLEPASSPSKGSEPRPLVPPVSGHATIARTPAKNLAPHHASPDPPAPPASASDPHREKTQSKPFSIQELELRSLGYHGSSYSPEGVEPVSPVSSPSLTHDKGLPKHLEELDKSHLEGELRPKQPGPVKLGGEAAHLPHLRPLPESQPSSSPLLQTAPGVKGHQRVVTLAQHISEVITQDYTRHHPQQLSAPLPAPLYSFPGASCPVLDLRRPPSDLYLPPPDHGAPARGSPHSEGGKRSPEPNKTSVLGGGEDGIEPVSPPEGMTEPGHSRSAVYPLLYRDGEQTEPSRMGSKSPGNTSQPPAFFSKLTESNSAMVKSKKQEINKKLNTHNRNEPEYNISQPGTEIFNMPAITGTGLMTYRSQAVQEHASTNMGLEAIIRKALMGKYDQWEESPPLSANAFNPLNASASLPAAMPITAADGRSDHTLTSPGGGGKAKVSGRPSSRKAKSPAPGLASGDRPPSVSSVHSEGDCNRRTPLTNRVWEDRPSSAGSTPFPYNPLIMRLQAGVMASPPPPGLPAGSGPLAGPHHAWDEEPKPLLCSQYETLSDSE

HeLa = test: Antiproliferative activity against human HeLa cells assessed as cell growth inhibition measured after 48 hrs by CCK8 assay; assay type: functional, cell-based
K562 = test: Antiproliferative activity against human K562 cells assessed as cell growth inhibition measured after 48 hrs by CCK8 assay; assay type: functional, cell-based; conditions: K562, 48 h
[5] = molecular target: NAD-dependent protein deacetylase sirtuin-2 (Homo sapiens, UniProt Q8IXJ6); test: Inhibition of recombinant human SIRT2 measured after 30 mins by fluorescence microplate reader assay
Histone deacetylase 5 = Histone deacetylase 5 (Homo sapiens, UniProt Q9UQL6); test: Inhibition of HDAC5 (unknown origin) measured after 30 mins by fluorescence microplate reader assay
Chain of Histone deacetylase 5 (Q9UQL6 whole entry, the tested form may be a part): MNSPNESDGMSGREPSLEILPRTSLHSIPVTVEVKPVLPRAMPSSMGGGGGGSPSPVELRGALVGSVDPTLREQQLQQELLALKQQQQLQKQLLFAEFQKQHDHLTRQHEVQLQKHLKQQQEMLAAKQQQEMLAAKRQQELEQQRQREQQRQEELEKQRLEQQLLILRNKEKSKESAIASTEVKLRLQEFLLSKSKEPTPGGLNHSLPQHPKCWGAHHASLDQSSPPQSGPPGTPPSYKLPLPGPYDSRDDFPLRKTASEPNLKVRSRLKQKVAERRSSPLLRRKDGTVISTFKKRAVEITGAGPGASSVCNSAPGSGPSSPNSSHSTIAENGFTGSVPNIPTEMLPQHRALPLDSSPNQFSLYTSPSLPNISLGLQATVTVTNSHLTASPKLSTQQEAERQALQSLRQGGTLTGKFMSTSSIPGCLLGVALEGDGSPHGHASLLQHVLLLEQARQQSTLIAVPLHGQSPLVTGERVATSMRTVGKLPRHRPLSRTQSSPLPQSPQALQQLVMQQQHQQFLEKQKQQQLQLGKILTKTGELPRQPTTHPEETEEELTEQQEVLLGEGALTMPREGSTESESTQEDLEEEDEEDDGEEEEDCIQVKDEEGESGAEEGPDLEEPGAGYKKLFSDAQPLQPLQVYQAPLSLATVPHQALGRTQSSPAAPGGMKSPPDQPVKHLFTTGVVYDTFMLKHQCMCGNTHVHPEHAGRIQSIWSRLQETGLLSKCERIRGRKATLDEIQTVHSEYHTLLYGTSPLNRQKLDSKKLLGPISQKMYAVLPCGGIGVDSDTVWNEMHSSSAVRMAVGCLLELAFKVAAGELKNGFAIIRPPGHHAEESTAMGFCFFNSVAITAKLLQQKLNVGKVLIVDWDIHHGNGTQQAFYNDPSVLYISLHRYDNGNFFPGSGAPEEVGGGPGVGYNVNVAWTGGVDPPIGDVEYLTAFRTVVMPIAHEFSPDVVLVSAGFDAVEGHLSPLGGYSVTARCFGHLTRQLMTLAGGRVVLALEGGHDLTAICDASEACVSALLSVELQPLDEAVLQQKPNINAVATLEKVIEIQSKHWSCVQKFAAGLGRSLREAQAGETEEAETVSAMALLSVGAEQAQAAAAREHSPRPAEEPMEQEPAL

CDK4/Cyclin D3 = CDK4/Cyclin D3 (Homo sapiens, UniProt P11802); test: Inhibition of full length human CDK4 (1 to 303 residues)/N-terminal GST-fusion tagged CyclinD3 (1 to 292 residues) expressed in baculovirus expression system preincubated for 10 mins followed by substrate and ATP addition by mobility shift assay
[6] = molecular target: CDK4/Cyclin D3 (Homo sapiens) (UniProt P11802+P30281); conditions: dose 100.0 nM, time 10.0 min

inhibition [1] [%] | inhibition [2] [%] | IC50 (Histone deacetylase 2) [µM] | IC50 (Histone deacetylase 7) [µM] | IC50 (Histone deacetylase 1) [µM] | IC50 [4] [µM] | SMILES | IC50 (Histone deacetylase 9) [µM] | IC50 (HepG2) [µM] | IC50 (A549) [µM] | IC50 [3] [µM] | IC50 (HeLa) [µM] | IC50 (K562) [µM] | IC50 [5] [µM] | IC50 (Histone deacetylase 5) [µM] | IC50 (CDK4/Cyclin D3) [µM] | inhibition [6] [%]
34.9 | 0.1 | > 5 | > 5 | > 5 | > 5 | O=C(O)CCCO/N=C1/C(=C2/C(=O)Nc3ccccc32)Nc2ccccc21 | > 5 | > 10 | > 10 | > 100 | > 10 | > 10 | > 100 | > 5 |  | 
4.5 | 23 | > 100 | > 5 | > 100 | > 100 | C#CCN1C(=O)/C(=C2\Nc3ccccc3\C2=N/OCCCC(=O)NO)c2ccccc21 |  |  |  |  |  |  |  |  | > 1 | 3.9

SMILES | inhibition [1] [%] | inhibition [2] [%] | IC50 (Histone deacetylase 2) [µM] | IC50 (Histone deacetylase 7) [µM] | IC50 (Histone deacetylase 1) [µM] | IC50 [4] [µM] | IC50 (Histone deacetylase 9) [µM] | IC50 (HepG2) [µM] | IC50 (A549) [µM] | IC50 [3] [µM] | IC50 (HeLa) [µM] | IC50 (K562) [µM] | IC50 [5] [µM] | IC50 (Histone deacetylase 5) [µM] | IC50 (CDK4/Cyclin D3) [µM] | inhibition [6] [%]
O=C(CCCO/N=C1/C(=C2/C(=O)Nc3ccccc32)Nc2ccccc21)NO | 66.8 | 51 | > 5 | > 5 | > 5 | > 5 | > 5 | 5.7 | 2 | > 100 | 0.8 | 2.5 | > 100 | > 5 | 0.276 | 30.2

From ChEMBL document CHEMBL4842385, “Indirubin Derivatives as Dual Inhibitors Targeting Cyclin-Dependent Kinase and Histone Deacetylase for Treating Cancer” (J Med Chem, 2021)
